Assays:
[1] = target: EIF2AK3 (PERK) catalytic domain (amino acids 536-1116) (Homo sapiens (Human), UniProt Q9NZJ5); assay: PERK in vitro activity assay (isolated), TR-FRET kinase assay; conditions: isolated PERK enzyme, 1.5 μM ATP, GFP-eIF2a substrate; read-out: Biochemical IC50
Procedure, shortened: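 Human PERK catalytic domain (aa 536-1116) with 100-200 nM GFP-eIF2a in 50 mM HEPES pH 7.5, 10 mM MgCl2, 1.0 mM EGTA, 0.01% Brij-35; enzyme-started reaction run 45 min at room temperature. Stopped with 10 mM EDTA, 2 nM Tb-anti-phospho-eIF2a added for 90 min; IC50 from TR-FRET ratio by 4-parameter logistic fit.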

PERK = PERK (Homo sapiens (Human), UniProt Q9NZJ5); assay: PERK cellular assay (TR-FRET, HEK293-EGFP-eIF2α cells, tunicamycin-induced ER stress); format: cell-based; conditions: tunicamycin 2 hours, read-out: Cellular IC50 (μM) (EIF2a)
PERK, sequence (Q9NZJ5 30-1116): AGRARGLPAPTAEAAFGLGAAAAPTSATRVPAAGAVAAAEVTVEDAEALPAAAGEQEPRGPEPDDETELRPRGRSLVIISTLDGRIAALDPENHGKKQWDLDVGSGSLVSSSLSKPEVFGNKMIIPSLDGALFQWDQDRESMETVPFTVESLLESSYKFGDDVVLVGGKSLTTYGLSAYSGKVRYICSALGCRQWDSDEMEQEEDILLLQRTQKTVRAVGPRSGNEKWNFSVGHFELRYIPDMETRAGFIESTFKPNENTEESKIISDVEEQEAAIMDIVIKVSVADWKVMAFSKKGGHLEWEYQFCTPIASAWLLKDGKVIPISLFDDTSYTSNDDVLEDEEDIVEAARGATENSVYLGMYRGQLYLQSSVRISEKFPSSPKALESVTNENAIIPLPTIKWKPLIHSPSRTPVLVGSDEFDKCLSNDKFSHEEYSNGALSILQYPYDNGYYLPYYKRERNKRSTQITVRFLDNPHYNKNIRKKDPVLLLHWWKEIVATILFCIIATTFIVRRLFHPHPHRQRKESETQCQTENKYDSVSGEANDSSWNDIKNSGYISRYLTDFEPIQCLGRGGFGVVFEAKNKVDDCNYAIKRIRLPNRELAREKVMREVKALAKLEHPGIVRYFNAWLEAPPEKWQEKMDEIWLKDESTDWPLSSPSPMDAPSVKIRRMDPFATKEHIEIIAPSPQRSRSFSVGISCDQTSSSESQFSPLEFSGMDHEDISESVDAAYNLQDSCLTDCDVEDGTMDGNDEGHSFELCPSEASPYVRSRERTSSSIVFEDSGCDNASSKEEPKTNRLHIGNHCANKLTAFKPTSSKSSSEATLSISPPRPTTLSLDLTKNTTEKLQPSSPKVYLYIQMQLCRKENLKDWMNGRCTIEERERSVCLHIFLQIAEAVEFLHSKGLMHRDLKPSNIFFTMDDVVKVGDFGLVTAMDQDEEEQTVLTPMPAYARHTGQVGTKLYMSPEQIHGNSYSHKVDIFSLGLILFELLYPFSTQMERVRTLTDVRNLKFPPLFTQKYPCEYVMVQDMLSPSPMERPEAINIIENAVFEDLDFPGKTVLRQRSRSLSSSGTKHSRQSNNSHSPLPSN
Procedure, shortened: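 After 2 h tunicamycin ([…]) stress following 30 min compound pretreatment at 37 °C, lysed HEK293-EGFP-eIF2α cells were read by TR-FRET. IC50 derived by 4-parameter logistic fitting of percent inhibition, DMSO-normalized, from 10-point 3-fold dilutions.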

EIF2AK3 (PERK) catalytic domain (amino acids 536-1116), sequence (Q9NZJ5 536-1116): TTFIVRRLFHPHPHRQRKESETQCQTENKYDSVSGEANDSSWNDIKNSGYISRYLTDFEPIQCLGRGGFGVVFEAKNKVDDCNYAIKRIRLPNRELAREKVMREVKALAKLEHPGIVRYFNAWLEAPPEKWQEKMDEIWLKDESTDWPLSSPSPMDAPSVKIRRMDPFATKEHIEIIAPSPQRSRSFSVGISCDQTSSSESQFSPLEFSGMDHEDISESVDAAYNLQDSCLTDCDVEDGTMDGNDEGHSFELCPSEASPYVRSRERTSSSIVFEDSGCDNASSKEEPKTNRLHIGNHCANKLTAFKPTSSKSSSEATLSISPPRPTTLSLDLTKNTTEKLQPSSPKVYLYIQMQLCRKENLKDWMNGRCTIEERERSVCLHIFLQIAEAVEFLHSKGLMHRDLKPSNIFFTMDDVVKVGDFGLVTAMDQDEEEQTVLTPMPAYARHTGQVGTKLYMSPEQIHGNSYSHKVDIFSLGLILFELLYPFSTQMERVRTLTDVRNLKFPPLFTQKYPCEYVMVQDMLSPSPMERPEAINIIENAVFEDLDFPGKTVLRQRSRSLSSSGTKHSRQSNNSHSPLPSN

| SMILES | IC50 [1] [nM] | IC50 (PERK) [µM] |
| --- | --- | --- |
| Nc1ncc(-c2ccc(NC(=O)C(O)c3cc(F)cc(F)c3)cc2Cl)cc1C(=O)NCC(F)(F)F (centres unmarked) [Example 87, 2-amino-5-(2-chloro-4-(2-(3,5-difluorophenyl)-2-hydroxyacetamido)phenyl)-N-(2,2,2-trifluoroethyl) nicotinamide] | 26 to 50 | 0.101 to 0.25 |
| CNc1ncc(-c2ccc(NC(=O)C(O)c3cc(F)cc(F)c3)cc2C)cc1C(=O)NC(C)C (centres unmarked) [Example 175, 5-(4-(2-(3,5-difluorophenyl)-2-hydroxyacetamido)-2-methylphenyl)-N-isopropyl-2-(methylamino) nicotinamide] | 1000 to 2000 | > 5 |
| Cc1cc(NC(=O)CC2CCC2)ccc1-c1cnc(N)c(C(=O)NC(C)C)c1 [Example 214, 2-amino-5-(4-(2-cyclobutylacetamido)-2-methylphenyl)-N-isopropylnicotinamide] | 251 to 500 | > 5 |
| COc1ccc(CC(=O)Nc2ccc(-c3cnc(N)c(C(=O)NC(C)C)c3)c(C)c2)cc1 [Example 194, 2-amino-N-isopropyl-5-(4-(2-(4-methoxyphenyl)acetamido)-2-methylphenyl) nicotinamide] | 501 to 1000 | 2 to 3 |
| Cc1nc(C(O)C(=O)Nc2ccc(-c3cnc(N)c(C(=O)NC(C)C)c3)c(C)c2)cs1 (centres unmarked) [Example 78, 2-amino-5-(4-(2-hydroxy-2-(2-methylthiazol-4-yl)acetamido)-2-methylphenyl)-N-isopropylnicotinamide] | 1000 to 2000 | > 5 |
| Cc1cc(NC(=O)Cc2cccc(F)c2)ccc1-c1cnc(N)c(C(=O)NC(C)C)c1 [Example 190, 2-amino-5-(4-(2-(3-fluorophenyl)acetamido)-2-methylphenyl)-N-isopropylnicotinamide] | 51 to 100 | 0.501 to 1 |
| Cc1cc(NC(=O)Cc2cc(F)cc(F)c2)ccc1-c1cnc(N)c(C(=O)NC(C)C)c1 [Example 186, 2-amino-5-(4-(2-(3,5-difluorophenyl)acetamido)-2-methylphenyl)-N-isopropylnicotinamide] | 51 to 100 | 0.101 to 0.25 |
| CCc1cc(NC(=O)C(O)c2cccc(Cl)c2)ccc1-c1cnc(N)c(C(=O)NC(C)C)c1 (single isomer, unassigned) [Example 108, 2-amino-5-(4-(2-(3-chlorophenyl)-2-hydroxyacetamido)-2-ethylphenyl)-N-isopropylnicotinamide] | 1 to 25 | 0.001 to 0.025 |
| Cc1cc(NC(=O)C(O)c2ccccc2)ccc1-c1cnc(N)c(C(=O)NC(C)C)c1 (single isomer, unassigned) [Example 1, 2-amino-5-(4-(2-hydroxy-2-phenylacetamido)-2-methylphenyl)-N-isopropylnicotinamide] | 1 to 25 | 0.251 to 0.5 |
| Cc1cc(NC(=O)C(O)c2cc(F)cc(F)c2)ccc1-c1cnc(N)c(C(=O)NC(C)C)c1 (centres unmarked) [Example 40, 2-amino-5-(4-(2-(3,5-difluorophenyl)-2-hydroxyacetamido)-2-methylphenyl)-N-isopropylnicotinamide] | 1 to 25 | 0.026 to 0.05 |
| Cc1cc(NC(=O)C(O)c2cc(F)cc(F)c2)ccc1-c1cnc(C)c(C(=O)NC(C)C)c1 (centres unmarked) [Example 176, 5-(4-(2-(3,5-difluorophenyl)-2-hydroxyacetamido)-2-methylphenyl)-N-isopropyl-2-methylnicotinamide] | 51 to 100 | 0.501 to 1 |
| CCc1cc(NC(=O)C(O)c2cccc(C(F)(F)F)c2)ccc1-c1cnc(N)c(C(=O)NC(C)C)c1 (centres unmarked) [Example 110, 2-amino-5-(2-ethyl-4-(2-hydroxy-2-(3-(trifluoromethyl)phenyl)acetamido)phenyl)-N-isopropylnicotinamide] | 1 to 25 | 0.001 to 0.025 |
| Cc1cc(NC(=O)C(O)c2cc(F)cc(F)c2)ccc1-c1cnc(N)c(C(=O)NC2COC2)c1 (centres unmarked) [Example 25, 2-amino-5-(4-(2-(3,5-difluorophenyl)-2-hydroxyacetamido)-2-methylphenyl)-N-(oxetan-3-yl)nicotinamide] | 26 to 50 | 0.501 to 1 |
